Source: PMC5642495, “Characterization of a novel androgen receptor (AR) coregulator RIPK1 and related chemicals that suppress AR-mediated prostate cancer growth via peptide and chemical screening” (Oncotarget, 2017)

How the values were obtained:
[1] = molecular target: T1, AR-peptide interaction (Homo sapiens, UniProt P10275); assay: AR-peptide interaction reporter assay (GAL4-DBD-3-18 / VP16-AR) in PC-3 cells; type: cell-based; conditions: 10 nM DHT, Figure 6B
T1 construct: expressed in transfected cells; host or cells: PC-3
T1 sequence (P10275 1-920): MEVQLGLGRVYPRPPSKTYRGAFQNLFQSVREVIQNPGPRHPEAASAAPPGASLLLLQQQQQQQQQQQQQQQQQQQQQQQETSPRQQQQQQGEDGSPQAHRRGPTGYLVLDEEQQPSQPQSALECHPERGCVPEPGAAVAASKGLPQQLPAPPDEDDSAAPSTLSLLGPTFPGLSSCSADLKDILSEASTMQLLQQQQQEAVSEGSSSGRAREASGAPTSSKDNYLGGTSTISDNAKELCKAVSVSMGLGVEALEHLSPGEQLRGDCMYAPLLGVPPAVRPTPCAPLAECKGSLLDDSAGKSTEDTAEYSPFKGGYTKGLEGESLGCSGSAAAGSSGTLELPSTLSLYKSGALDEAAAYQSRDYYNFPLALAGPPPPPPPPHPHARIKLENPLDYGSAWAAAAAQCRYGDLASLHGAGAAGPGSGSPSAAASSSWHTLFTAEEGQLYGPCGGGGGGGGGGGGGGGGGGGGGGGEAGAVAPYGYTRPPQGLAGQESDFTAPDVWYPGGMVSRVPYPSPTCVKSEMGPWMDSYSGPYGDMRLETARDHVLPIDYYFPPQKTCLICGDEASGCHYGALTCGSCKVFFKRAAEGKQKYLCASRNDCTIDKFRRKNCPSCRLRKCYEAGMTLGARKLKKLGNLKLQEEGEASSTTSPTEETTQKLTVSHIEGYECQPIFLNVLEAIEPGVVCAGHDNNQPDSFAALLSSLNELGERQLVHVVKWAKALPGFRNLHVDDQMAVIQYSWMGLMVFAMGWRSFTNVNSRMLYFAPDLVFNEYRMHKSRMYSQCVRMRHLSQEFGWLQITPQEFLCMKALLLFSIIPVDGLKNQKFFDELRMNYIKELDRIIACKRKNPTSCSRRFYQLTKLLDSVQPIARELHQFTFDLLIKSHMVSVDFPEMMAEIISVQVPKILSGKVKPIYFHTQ
Protocol: (§1) Figure 6 Mechanism underlying suppression of AR-related functions by oxadiazole derivatives (A–C) Transcriptional activity in reporter assays. PC-3 cells in 24-well plates were transfected as indicated below. After incubation for 16 h, cells were treated with ethanol, 10 nM DHT, or 0.01–10 μM HWC-489 or LHJ-647 for an additional 16 h. Luciferase activity in cell lysates was determined and normalized to protein concentrations. Relative luciferase activity was calculated using the luciferase reporter assay system. (A) PC-3 cells were co-transfected with 350 ng pCDNA3-flag-hAR-N (residues 1–506), 350 ng pCDNA3-hAR-C (residues 556–919), and 300 ng MMTV-Luc plasmids. (B) PC-3 cells were co-transfected with 350 ng GAL4-DBD-3-18, 350 ng pCMX-VP16-AR, and 300 ng pG5-Luc plasmids. (C) PC-3 cells were transfected with 350 ng GAL4-DBD-ARA54C, 350 ng VP16-AR, and 300 ng pG5-Luc plasmids. (D) LHJ-647 promotes AR protein degradation.

[2] = tested on: AR transactivation; assay: AR transcriptional reporter assay in PC-3 cells; type: cell-based, human; conditions: 10 nM DHT
Protocol: Figure 1 Associations between RIPK1 and AR (A) Co-IP of Flag-RIPK1 with Flag-AR in the 293T cell line. Extracts of 293T cells overexpressing 3xFlag-RIPK1 and 3xFlag-AR were treated with […]. IP was performed using anti-AR (C19) or anti-RIPK1 antibody or normal rabbit serum (negative control), followed by immunoblotting (IB) with antibodies against AR or RIPK1. (B) RIPK1 interacts with full-length AR and the N- and C-terminal regions of AR in GST pull-down assays. Mutation of the FxxFY motif to AxxAA in RIPK1 reduced interactions with AR. […] (C) Transfection of PC-3 prostate cancer cells with AR and RIPK1. PC-3 cells in 24-well plates were co-transfected with 300 ng MMTV-LUC reporter plasmid and 0.5 ng SV40-Renilla luciferase plasmid, together with 100 ng pCMV-Flag-AR and 100, 300 or 500 ng p3xFLAG- RIPK1. The total plasmid DNA content was made up to 1 µg with pCMV. After 16 h, ethanol or 10 nM DHT was added and cells incubated for an additional 16 h. DHT was used as the AR ligand while ARA70N served as the positive control. Relative LUC activity was determined using the dual luciferase system. (D) RIPK1 functional domain mapping in relation to AR transactivation. PC-3 cells were transfected with pCMV-Flag-AR and RIPK1 expression plasmid, P3xFlag-RIPK1 full-length, P3xFlag-RIPK1-(240-671) or P3xflag-RIPK1-(1-558) plasmid, and cultured overnight. Ethanol or 10 nM DHT was added and cells incubated for an additional 16 h. Relative LUC activity was determined using the dual luciferase system. (E) RIPK1 is expressed in benign prostatic hyperplasia tissue, displaying strong positivity (3+, > 90%) in the gland area but weak (1+, 50%) staining in the background. (F) Human prostate cancer tissues were immunostained for RIPK1. “T” indicates the tumor area (right side) and “Non-T” the non-tumor area (left side). RIPK1 expression was weak (1+, 80%) in the cancer area but remained strong (3+, 70%) in the peri-cancer area. The figures are representative of three benign prostatic gland hyperplasia and cancer tissues.
The PC-3 prostate cancer cell line was used for experiments. […]

[3] = molecular target: T2, AR protein (Homo sapiens, UniProt P10275); assay: AR protein degradation; type: cell-based; conditions: Figure 6D
T2 sequence (P10275 1-920): T1 sequence (P10275 1-920)
Protocol: as §1

SMILES	concentration range of significant suppression of AR-peptide interaction [1] [µM]	effect on AR transactivation in combination with enzalutamide ([2]; 1 µM enzalutamide plus 0.1 µM HWC-489 (lane 14 vs. 4))	AR protein degradation [3]	effect on AR transactivation in combination with enzalutamide ([2]; 1 µM enzalutamide plus 1 µM LHJ-647 (lane 9 vs. 4))
Cc1ccc(-c2nnc(Nc3ccccc3)o2)cc1 [HWC-489]	0.1 to 1	additive effect	–	–
COc1cccc(Nc2nnc(-c3ccc(N(C)C)cc3)o2)c1 [LHJ-647]	0.1 to 1	–	promoted AR protein degradation	additive effect
